pIC50, pKi: −log10 of the molar value. The source made the active and inactive calls. The rule behind the calls is not given here.
Columns and labels:
[1] = Cytotoxicity against BL2 cells (unknown origin) assessed as cell killing after 24 hrs by MTT assay; type: functional, cell-based; settings: BL2, 24 h
[2] = Cytotoxicity against Remb1 cells (unknown origin) assessed as cell killing after 24 hrs by MTT assay; type: functional, cell-based; settings: Remb1, 24 h
[3] = Cytotoxicity against BL2/B95 cells (unknown origin) assessed as cell killing after 24 hrs by MTT assay; type: functional, cell-based; settings: BL2/B95, 24 h
Bcl-xL/BAK = Bcl-xL/BAK (Homo sapiens, UniProt Q07817); assay: Inhibition of Bcl-xL/Bak (unknown origin) interaction; type: protein assay
Bcl-xL/BAK, sequence (Q07817 whole entry, the tested form may be a part): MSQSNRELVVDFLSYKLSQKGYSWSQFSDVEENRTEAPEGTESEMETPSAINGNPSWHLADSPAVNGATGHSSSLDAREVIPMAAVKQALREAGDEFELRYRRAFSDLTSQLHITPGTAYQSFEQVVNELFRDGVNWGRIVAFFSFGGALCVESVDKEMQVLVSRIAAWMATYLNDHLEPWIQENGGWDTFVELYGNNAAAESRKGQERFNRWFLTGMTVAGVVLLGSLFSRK
Bcl-xL/BAK, sequence (Q16611 whole entry, further chain, the tested form may be a part): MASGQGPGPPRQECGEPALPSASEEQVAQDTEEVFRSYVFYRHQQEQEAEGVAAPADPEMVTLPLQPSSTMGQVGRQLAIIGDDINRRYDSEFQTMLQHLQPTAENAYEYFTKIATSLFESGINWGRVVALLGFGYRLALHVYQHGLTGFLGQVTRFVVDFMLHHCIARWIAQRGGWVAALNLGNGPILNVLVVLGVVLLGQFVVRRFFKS

[4] = biological target: Induced myeloid leukemia cell differentiation protein Mcl-1/BH3-interacting domain death agonist (Homo sapiens, UniProt Q07820); assay: Inhibition of Mcl1/Bid (unknown origin) interaction; type: protein assay
Induced myeloid leukemia cell differentiation protein Mcl-1/BH3-interacting domain death agonist, sequence (Q07820 whole entry, the tested form may be a part): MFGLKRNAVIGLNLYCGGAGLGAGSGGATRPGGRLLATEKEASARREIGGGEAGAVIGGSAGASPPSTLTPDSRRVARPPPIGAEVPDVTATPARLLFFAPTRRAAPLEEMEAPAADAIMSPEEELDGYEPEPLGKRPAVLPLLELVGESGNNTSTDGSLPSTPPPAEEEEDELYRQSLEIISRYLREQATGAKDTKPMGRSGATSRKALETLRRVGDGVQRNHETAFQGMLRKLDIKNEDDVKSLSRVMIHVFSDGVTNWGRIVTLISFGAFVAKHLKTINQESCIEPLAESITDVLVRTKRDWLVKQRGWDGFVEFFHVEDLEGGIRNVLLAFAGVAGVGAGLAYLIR
Induced myeloid leukemia cell differentiation protein Mcl-1/BH3-interacting domain death agonist, sequence (P55957 whole entry, further chain, the tested form may be a part): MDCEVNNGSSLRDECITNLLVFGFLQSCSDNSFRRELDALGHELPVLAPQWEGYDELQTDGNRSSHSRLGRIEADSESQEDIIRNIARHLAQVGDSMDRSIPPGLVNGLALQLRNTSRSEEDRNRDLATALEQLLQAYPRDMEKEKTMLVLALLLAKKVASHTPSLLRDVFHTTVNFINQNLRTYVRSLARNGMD

[5] = Induction of apoptosis in BL2/B95 cells (unknown origin) at 7.5 uM after 24 hrs by Annexin V/propidium iodide staining-based flow cytometric analysis; type: functional
BL2/B95 = assay: Induction of apoptosis in BL2/B95 cells (unknown origin) assessed as PARP cleavage at 7.5 uM after 24 hrs by Western blot analysis; type: functional, cell-based
[6] = Induction of apoptosis in Remb1 cells (unknown origin) at 7.5 uM after 24 hrs by Annexin V/propidium iodide staining-based flow cytometric analysis; type: functional
[7] = Cytotoxicity against Remb1 cells (unknown origin) assessed as cell killing at 10 uM after 24 hrs by MTT assay; type: functional
[8] = Cytotoxicity against BL2/B95 cells (unknown origin) assessed as cell killing at 10 uM after 24 hrs by MTT assay; type: functional
BL2 = assay: Induction of apoptosis in BL2 cells (unknown origin) assessed as PARP cleavage at 7.5 uM after 24 hrs by Western blot analysis; type: functional, cell-based
[9] = Induction of apoptosis in BL2 cells (unknown origin) at 7.5 uM after 24 hrs by Annexin V/propidium iodide staining-based flow cytometric analysis; type: functional
Remb1 = assay: Induction of apoptosis in Remb1 cells (unknown origin) assessed as PARP cleavage at 7.5 uM after 24 hrs by Western blot analysis; type: functional, cell-based
[10] = Cytotoxicity against BL2 cells (unknown origin) assessed as cell killing at 10 uM after 24 hrs by MTT assay; type: functional

What does the source list for `CC(C)=CCC[C@@H](C)[C@@H]1C=C[C@]2(C(=O)O)[C@@H](CC(C)=C[C@H]2/C=C(\C)[C@H]2CC[C@H](C(=O)O)CC2)C1`?
pIC50 [1]: < 4.70; pIC50 [2]: < 4.70; pIC50 [3]: < 4.70

With `CC(C)=CCC[C@H](C)[C@H]1C=C[C@@]2(C(=O)O)[C@H](CC(C)=C[C@@H]2/C=C(\C)[C@H]2CC[C@H](C(=O)O)CC2)C1` as the compound, how does the pIC50 [1] read?
The pIC50 was < 4.70.

And the pIC50 [2]?
Its pIC50 is < 4.70.

And the pIC50 [3]?
Its pIC50 is < 4.70.

With `CC(C)=CCC[C@H](C)[C@@H]1C=C[C@]2(C(=O)O)[C@@H](CC(C)=C[C@H]2/C=C(\C)c2ccc(C(=O)O)cc2)C1` as the compound, how does the pKi (Bcl-xL/BAK) read?
Its pKi is 5.12.

And the pIC50 [1]?
Its pIC50 is < 4.70.

And the pIC50 [2]?
Its pIC50 is < 4.70.

What about the pKi [4] of the same compound?
Its pKi is 4.80.

And the pIC50 [3]?
Its pIC50 is < 4.70.

With `CC(C)=CCC[C@@H](C)[C@@H]1C=C[C@]2(C(=O)O)[C@@H](CC(C)=C[C@H]2/C=C(\C)c2ccc(C(=O)O)cc2)C1` as the compound, how does the pKi (Bcl-xL/BAK) read?
The pKi was 5.34.

What about the Activity [5] of the same compound?
The Activity was 52%.

And the Activity (BL2/B95)?
Its Activity is “Active”.

And the Activity [6]?
Its Activity is 54%.

And the pIC50 [1]?
The pIC50 was 5.07.

And the Activity [7]?
Its Activity is >50%.

What about the Activity [8] of the same compound?
Its Activity is >50%.

And the pIC50 [2]?
The pIC50 was 5.07.

And the Activity (BL2)?
The Activity was “Active”.

And the Activity [9]?
Its Activity is 71%.

What about the Activity (Remb1) of the same compound?
Its Activity is “Active”.

What about the Activity [10] of the same compound?
The Activity was >50%.

And the pKi [4]?
The pKi was 5.04.

What about the pIC50 [3] of the same compound?
Its pIC50 is 5.07.

With `CC(C)=CCC[C@@H](C)[C@H]1C=C[C@@]2(C(=O)O)[C@H](CC(C)=C[C@@H]2/C=C(\C)[C@H]2CC[C@H](C(=O)O)CC2)C1` as the compound, how does the pIC50 [1] read?
The pIC50 was < 4.70.

What about the pIC50 [2] of the same compound?
Its pIC50 is < 4.70.

And the pIC50 [3]?
The pIC50 was < 4.70.

From ChEMBL document CHEMBL3351486 (Bioorg Med Chem Lett, 2014)
